Assays:
[1] = biological target: Calcium/calmodulin-dependent protein kinase kinase 1 (Homo sapiens) (UniProt Q8N5S9); settings: at 10 µM
[2] = biological target: N-lysine methyltransferase SMYD2 (Homo sapiens) (UniProt Q9NRG4); assay: Selectivity interaction (Methyltransferase screen (radiometric assays, panel of 8 PRMTs, 21 protein lysine methyltransferases, 3 DNA methyltransferases, and one RNA methyltransferase)) EUB0000272b SMYD2
[3] = test system: Mast/stem cell growth factor receptor Kit (Homo sapiens), P10721 [V559D]; assay: (§1) Selectivity interaction (KinomeScan (DiscoverX)) EUB0000655a KIT; settings: at 10 µM
[4] = test system: Mast/stem cell growth factor receptor Kit (Homo sapiens), P10721 [D816H]; assay: as §1; settings: at 10 µM
[5] = test system: Mast/stem cell growth factor receptor Kit (Homo sapiens), P10721 [L576P]; assay: as §1; settings: at 10 µM
[6] = biological target: Mast/stem cell growth factor receptor Kit (Homo sapiens, UniProt P10721); assay: as §1; settings: at 10 µM
[7] = test system: Mast/stem cell growth factor receptor Kit (Homo sapiens), P10721 [V559D,V654A]; assay: as §1; settings: at 10 µM
[8] = biological target: T1, Ephrin type-A receptor 1 (Homo sapiens) (UniProt P21709); assay: Selectivity interaction (Upstate Kinase Profiler service (Millipore)) EUB0000056c EPHA1; settings: at 1 µM
T1 sequence (whole entry): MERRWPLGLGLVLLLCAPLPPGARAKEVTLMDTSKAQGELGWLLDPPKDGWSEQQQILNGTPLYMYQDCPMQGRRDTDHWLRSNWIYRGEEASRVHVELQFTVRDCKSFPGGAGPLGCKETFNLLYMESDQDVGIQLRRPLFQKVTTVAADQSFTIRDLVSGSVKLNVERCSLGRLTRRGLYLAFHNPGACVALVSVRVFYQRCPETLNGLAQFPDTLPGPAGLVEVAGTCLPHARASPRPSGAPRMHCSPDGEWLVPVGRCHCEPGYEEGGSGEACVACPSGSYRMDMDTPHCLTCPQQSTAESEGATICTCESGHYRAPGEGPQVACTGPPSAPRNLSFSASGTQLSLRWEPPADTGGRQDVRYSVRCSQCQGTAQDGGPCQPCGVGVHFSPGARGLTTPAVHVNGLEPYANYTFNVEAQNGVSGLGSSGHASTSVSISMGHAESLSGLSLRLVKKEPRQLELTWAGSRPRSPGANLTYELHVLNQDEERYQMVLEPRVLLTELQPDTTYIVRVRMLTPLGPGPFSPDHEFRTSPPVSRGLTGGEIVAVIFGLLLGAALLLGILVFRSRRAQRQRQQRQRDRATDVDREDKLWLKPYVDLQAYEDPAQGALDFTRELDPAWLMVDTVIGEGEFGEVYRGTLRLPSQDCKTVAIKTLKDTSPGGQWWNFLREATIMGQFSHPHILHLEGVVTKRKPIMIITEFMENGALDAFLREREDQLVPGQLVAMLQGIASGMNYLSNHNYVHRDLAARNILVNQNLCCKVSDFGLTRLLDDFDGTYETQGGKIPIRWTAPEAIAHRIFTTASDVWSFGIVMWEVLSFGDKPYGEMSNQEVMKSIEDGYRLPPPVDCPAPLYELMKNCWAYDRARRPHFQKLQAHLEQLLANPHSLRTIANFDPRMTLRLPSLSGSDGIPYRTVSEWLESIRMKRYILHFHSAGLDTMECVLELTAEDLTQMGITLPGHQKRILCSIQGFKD

[9] = biological target: Serine/threonine-protein kinase MARK2 (Homo sapiens) (UniProt Q7KZI7); assay: Selectivity interaction (Kinase panel (Invitrogen)) EUB0000639a MARK2; settings: at 200 nM
[10] = biological target: T2, Phosphatidylinositol 3-kinase C2 domain-containing subunit gamma (Homo sapiens) (UniProt O75747); assay: Selectivity interaction (KinomeScan (DiscoverX)) EUB0000092b PIK3C2G; settings: at 10 µM
T2 sequence (whole entry): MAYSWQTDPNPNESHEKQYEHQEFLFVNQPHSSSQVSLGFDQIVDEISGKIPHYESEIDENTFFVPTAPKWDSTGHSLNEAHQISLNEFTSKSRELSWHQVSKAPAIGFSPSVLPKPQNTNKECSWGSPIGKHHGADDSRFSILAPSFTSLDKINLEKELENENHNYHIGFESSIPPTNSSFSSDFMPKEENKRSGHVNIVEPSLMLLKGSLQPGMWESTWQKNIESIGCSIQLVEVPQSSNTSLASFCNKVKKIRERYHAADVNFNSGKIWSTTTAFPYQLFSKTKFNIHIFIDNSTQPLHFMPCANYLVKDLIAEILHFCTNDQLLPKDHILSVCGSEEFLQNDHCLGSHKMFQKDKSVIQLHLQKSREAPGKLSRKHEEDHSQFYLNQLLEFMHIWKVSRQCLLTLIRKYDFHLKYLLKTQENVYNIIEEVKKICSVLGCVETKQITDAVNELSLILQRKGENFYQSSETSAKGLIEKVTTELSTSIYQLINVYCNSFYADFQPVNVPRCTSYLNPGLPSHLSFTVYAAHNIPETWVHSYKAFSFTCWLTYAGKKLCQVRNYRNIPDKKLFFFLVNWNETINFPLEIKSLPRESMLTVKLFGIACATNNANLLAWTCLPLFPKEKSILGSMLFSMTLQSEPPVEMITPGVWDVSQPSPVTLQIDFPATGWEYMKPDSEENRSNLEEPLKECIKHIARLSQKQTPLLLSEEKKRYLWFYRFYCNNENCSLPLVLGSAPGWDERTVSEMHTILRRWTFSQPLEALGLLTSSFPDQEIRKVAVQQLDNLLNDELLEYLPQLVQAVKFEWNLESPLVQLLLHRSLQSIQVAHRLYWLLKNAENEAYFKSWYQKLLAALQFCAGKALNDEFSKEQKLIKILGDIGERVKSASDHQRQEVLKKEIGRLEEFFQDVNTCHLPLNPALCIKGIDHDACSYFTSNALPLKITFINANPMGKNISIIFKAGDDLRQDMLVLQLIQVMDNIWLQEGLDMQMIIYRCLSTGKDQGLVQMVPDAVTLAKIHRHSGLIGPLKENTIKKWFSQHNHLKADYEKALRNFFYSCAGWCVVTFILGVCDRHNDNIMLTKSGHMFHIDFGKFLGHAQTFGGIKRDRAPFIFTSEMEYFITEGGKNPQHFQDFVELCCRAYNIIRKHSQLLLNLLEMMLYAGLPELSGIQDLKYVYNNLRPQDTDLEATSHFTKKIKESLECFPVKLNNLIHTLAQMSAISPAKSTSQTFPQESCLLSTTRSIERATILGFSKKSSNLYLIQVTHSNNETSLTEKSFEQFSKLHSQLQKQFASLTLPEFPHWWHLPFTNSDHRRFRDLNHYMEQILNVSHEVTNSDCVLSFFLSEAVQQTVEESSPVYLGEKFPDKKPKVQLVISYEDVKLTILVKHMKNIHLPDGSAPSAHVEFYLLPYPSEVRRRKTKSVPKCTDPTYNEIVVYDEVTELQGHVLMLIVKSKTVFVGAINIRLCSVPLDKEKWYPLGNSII

Sequence of N-lysine methyltransferase SMYD2 (Homo sapiens) (Q9NRG4 whole entry): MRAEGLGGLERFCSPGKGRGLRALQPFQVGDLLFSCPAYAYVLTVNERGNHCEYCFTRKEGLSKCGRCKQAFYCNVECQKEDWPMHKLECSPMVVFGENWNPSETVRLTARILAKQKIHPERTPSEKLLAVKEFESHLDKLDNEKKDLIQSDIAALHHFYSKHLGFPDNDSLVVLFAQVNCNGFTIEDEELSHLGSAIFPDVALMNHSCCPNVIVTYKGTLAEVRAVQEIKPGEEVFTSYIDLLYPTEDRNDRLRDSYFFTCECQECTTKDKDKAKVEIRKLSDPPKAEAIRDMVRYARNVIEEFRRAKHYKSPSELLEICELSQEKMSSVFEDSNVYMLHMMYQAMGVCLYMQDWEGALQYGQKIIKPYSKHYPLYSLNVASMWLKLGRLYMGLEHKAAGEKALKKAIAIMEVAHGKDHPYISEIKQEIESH
Sequence of Mast/stem cell growth factor receptor Kit (Homo sapiens), P10721 [V559D] (P10721 whole entry V559D): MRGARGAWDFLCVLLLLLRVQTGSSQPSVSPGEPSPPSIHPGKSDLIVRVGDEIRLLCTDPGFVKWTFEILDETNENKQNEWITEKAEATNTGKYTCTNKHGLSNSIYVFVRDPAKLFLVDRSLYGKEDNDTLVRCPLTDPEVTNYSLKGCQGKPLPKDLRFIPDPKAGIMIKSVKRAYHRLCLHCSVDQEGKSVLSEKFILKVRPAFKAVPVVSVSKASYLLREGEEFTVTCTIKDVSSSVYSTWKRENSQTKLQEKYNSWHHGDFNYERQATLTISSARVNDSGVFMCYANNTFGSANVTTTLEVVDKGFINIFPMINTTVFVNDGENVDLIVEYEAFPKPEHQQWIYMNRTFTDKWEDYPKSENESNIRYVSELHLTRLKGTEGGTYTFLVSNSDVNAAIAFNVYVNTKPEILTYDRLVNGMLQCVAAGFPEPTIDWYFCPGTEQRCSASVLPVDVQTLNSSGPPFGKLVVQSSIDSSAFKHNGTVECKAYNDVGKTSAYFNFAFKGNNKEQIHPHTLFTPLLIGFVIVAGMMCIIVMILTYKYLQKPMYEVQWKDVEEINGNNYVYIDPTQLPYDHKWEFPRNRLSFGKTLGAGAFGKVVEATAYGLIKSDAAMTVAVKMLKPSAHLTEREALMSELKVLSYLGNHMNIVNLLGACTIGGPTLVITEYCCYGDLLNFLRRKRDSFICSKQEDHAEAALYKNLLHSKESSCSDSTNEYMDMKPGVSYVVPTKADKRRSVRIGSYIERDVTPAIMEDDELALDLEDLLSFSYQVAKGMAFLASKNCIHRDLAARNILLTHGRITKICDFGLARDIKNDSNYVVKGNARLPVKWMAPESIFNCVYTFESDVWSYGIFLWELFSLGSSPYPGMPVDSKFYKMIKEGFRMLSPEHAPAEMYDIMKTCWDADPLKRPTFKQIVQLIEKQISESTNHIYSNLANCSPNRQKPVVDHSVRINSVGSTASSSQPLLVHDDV
Sequence of Serine/threonine-protein kinase MARK2 (Homo sapiens) (Q7KZI7 whole entry, the tested form may be a part): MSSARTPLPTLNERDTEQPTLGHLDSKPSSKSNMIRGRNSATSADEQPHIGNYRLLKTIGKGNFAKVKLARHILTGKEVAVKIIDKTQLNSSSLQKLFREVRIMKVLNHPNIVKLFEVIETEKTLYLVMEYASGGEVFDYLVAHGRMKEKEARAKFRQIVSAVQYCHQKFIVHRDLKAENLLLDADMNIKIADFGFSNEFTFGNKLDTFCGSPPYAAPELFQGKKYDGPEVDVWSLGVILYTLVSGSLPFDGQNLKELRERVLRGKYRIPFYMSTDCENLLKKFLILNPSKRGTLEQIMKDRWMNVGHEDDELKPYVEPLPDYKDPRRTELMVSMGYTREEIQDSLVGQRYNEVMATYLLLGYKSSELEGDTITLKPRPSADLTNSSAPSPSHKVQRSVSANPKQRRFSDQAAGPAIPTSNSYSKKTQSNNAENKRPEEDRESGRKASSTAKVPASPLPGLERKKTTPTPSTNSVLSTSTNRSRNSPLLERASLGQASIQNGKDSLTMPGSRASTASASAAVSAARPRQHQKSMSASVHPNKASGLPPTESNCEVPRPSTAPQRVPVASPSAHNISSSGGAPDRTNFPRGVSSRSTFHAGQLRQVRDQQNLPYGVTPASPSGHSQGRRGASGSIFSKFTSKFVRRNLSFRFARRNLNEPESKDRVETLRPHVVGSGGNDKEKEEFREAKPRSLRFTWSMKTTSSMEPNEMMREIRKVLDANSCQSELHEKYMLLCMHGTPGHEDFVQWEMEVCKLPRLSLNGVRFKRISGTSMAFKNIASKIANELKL
Sequence of Mast/stem cell growth factor receptor Kit (Homo sapiens), P10721 [V559D,V654A] (P10721 whole entry V559D/V654A): as the sequence (P10721 whole entry V559D) above, with V654A counted along it
Sequence of Calcium/calmodulin-dependent protein kinase kinase 1 (Homo sapiens) (Q8N5S9 whole entry, looked up): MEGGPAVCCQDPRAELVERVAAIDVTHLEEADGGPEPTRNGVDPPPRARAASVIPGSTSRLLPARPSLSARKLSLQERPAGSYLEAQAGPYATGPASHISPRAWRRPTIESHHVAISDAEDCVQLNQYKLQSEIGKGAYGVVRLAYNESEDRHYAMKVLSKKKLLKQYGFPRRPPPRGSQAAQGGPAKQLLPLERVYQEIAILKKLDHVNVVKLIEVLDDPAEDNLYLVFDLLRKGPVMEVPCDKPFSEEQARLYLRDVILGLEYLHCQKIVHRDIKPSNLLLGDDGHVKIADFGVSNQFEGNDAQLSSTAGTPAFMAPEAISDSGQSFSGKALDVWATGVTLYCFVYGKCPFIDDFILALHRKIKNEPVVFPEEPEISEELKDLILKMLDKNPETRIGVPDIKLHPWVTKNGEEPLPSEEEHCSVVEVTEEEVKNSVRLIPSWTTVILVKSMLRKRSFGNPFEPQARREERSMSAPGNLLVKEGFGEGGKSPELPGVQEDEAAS
Sequence of Mast/stem cell growth factor receptor Kit (Homo sapiens), P10721 [L576P] (P10721 whole entry L576P): as the sequence (P10721 whole entry V559D) above, with D559V, L576P counted along it
Sequence of Mast/stem cell growth factor receptor Kit (P10721 whole entry): as the sequence (P10721 whole entry V559D) above, with D559V counted along it
Sequence of Mast/stem cell growth factor receptor Kit (Homo sapiens), P10721 [D816H] (P10721 whole entry D816H): as the sequence (P10721 whole entry V559D) above, with D559V, D816H counted along it

Structure (SMILES): CCN(CC)CCCCNc1ncc2cc(-c3cc(OC)cc(OC)c3)c(NC(=O)NC(C)(C)C)nc2n1
- % of control [1]: 100%

Structure (SMILES): Cc1cc(C)cc([C@H]2c3cc(C)ccc3NC(=O)CN2C(=O)c2ccc(Br)s2)c1
- % of activity ([2]; at 1 µM): 94.3%
- % of activity ([2]; at 10 µM): 94.3%

Structure (SMILES): CN(C)CCOc1ccc(-c2nc(-c3ccncc3)c(-c3ccc4c(c3)CC/C4=N\O)[nH]2)cc1
- % of control [3]: 65%
- % of control [4]: 100%
- % of control [5]: 58%
- % of control [6]: 75%
- % of control [7]: 93%

Structure (SMILES): Cc1ccc(-c2ccc3c(ccc4sc5c(c43)NC[C@@H](C)NC5=O)n2)cn1
- % of inhibition [8]: -6%

Structure (SMILES): CC[C@@H]1[C@H](F)C(=O)N[C@@H]1COc1nccc2cc(C(N)=O)c(OC)cc12 [ZIMLOVISERTIB]
- % of inhibition [9]: 5.09%

Structure (SMILES): CCC(=O)N1CCN(c2ccc(-n3c(=O)ccc4cnc5ccc(-c6cnc7ccccc7c6)cc5c43)cc2C(F)(F)F)CC1
- % of control [10]: 11%

— ChEMBL document CHEMBL5465560, “Selectivity Literature for EUbOPEN Chemogenomic Library” (2024)
